Data: US6737383B1, “Herbicidal oxadiazolidines” (priority 1999, dated 2004)

Experiments:
[1] = system: wild oat; assay: Test B pre/postemergence wild oat; assay type: in vivo, Avena fatua
Summary of the method: (§1)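 Response is a visual 0-to-10 score relative to untreated plants, where 0 means no effect and 10 means complete control, taken twelve to sixteen days after application. Treatments went onto soil at planting and onto foliage of 1- to 4-leaf plants, using a surfactant-containing non-phytotoxic solvent.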

[2] = system: bamyardgrass; assay: Test B flood test barnyardgrass; assay type: in vivo, Echinochloa crus-galli
Summary of the method: (§2)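 Each value is a visual injury score relative to controls, with 10 meaning complete control and 0 no effect. Evaluation took place twelve to sixteen days after the 2-leaf-stage plants were treated and kept in the greenhouse.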

[3] = system: soybean; assay: Test B pre/postemergence soybean; assay type: in vivo, Glycine max
Summary of the method: as §1

[4] = system: surinam grass; assay: Test B pre/postemergence surinam grass; assay type: in vivo, Brachiaria decumbens
Summary of the method: as §1

[5] = system: blackgrass; assay: Test B pre/postemergence blackgrass; assay type: in vivo, Alopecurus myosuroides
Summary of the method: as §1

[6] = system: morningglory; assay: Test B pre/postemergence morningglory; assay type: in vivo, Ipomoea hederacea
Summary of the method: as §1

[7] = system: pigweed; assay: Test B pre/postemergence pigweed; assay type: in vivo, Amaranthus retroflexus
Summary of the method: as §1

[8] = system: corn; assay: Test B pre/postemergence corn; assay type: in vivo, Zea mays
Summary of the method: as §1

[9] = system: rape; assay: Test B pre/postemergence rape; assay type: in vivo, Brassica napus
Summary of the method: as §1

[10] = system: purple nutsedge; assay: Test B pre/postemergence purple nutsedge; assay type: in vivo, Cyperus rotundus; conditions: Preemergence
Summary of the method: as §1

[11] = system: bedstraw; assay: Test B pre/postemergence bedstraw; assay type: in vivo, Galium aparine
Summary of the method: as §1

[12] = system: sugar beet; assay: Test B pre/postemergence sugar beet; assay type: in vivo, Beta vulgaris
Summary of the method: as §1

[13] = system: giant foxtail; assay: Test B pre/postemergence giant foxtail; assay type: in vivo, Setaria faberii
Summary of the method: as §1

[14] = system: smallflower flatsedge; assay: Test B flood test smallflower flatsedge; assay type: in vivo, Cyperus difformis
Summary of the method: as §2

[15] = system: duck salad; assay: Test B flood test duck salad; assay type: in vivo, Heteranthera limosa
Summary of the method: as §2

[16] = system: crabgrass; assay: Test B pre/postemergence crabgrass; assay type: in vivo, Digitaria sanguinalis
Summary of the method: as §1

[17] = system: cocklebur; assay: Test B pre/postemergence cocklebur; assay type: in vivo, Xanthium strumarium
Summary of the method: as §1

[18] = system: velvetleaf; assay: Test B pre/postemergence velvetleaf; assay type: in vivo, Abutilon theophrasti
Summary of the method: as §1

[19] = system: wheat; assay: Test B pre/postemergence wheat; assay type: in vivo, Triticum aestivum
Summary of the method: as §1

[20] = system: rice; assay: Test B flood test rice; assay type: in vivo, Oryza sativa
Protocol: At the same time, these crop and weed species were also treated with postemergence applications of test chemicals formulated in the same manner. Plants ranged in height from 2 to 18 cm (1- to 4-leaf stage) for postemergence treatments. Plant species in the flood test consisted of rice (Oryza sativa), smallflower flatsedge (Cyperus difformis), duck salad (Heteranthera limosa) and bamyardgrass (Echinochloa crus-galli) grown to the 2-leaf stage for testing. Treated plants and controls were maintained in a greenhouse for twelve to sixteen days, after which all species were compared to controls and visually evaluated. Plant response ratings, summarized in Table B, are based on a scale of 0 to 10 where 0 is no effect and 10 is complete control. A dash (−) response means no test result.

[21] = Postemergence, Rate 62 g/ha, scale of 0 to 10, 0 is no effect, 10 is complete control
[22] = Postemergence, Rate 125 g/ha, scale 0 to 10, 0 is no effect, 10 is complete control
[23] = Postemergence, Rate 500 g/ha, scale 0 to 10, 0 is no effect, 10 is complete control
[24] = Preemergence, Rate 62 g/ha, scale 0 to 10 (0 no effect, 10 complete control)
[25] = Preemergence, Rate 125 g/ha, scale 0 to 10, 0 is no effect, 10 is complete control
[26] = Preemergence, Rate 500 g/ha, scale of 0 to 10 where 0 is no effect and 10 is complete control
[27] = Rate 250 g/ha, Postemergence, scale of 0 to 10 where 0 is no effect and 10 is complete control
[28] = Rate 62 g/ha, flood test species, Pre-emergence, visual evaluation after twelve to sixteen days
[29] = Rate 125 g/ha, under heading Pre-emergence, flood test species, visual evaluation after twelve to sixteen days
[30] = Rate 250 g/ha, Pre-emergence (flood test species), scale 0 to 10, 0 is no effect, 10 is complete control
[31] = Rate 500 g/ha, Pre-emergence section of Table B, 0 to 10 scale (0 no effect, 10 complete control)
[32] = Pre-emergence, Rate 62 g/ha, scale 0 to 10, 0 is no effect, 10 is complete control
[33] = Rate 125 g/ha, Pre-emergence section (flood test species), scale 0 to 10, 0 no effect, 10 complete control

C=CCCCn1c(=O)on(C(=O)N(c2ccc(Cl)cc2)C(C)C)c1=O [Compound 546]
9: Bedstraw plant response rating [11, 22] | Plant response rating, Bedstraw [11, 23] | Plant response rating, Bedstraw [11, 27]
10: Plant response rating, Morningglory [6, 23] | Redroot pigweed plant response rating (0 to 10 scale) ([7]; Preemergence, Rate 250 g/ha) | Giant foxtail plant response rating (0 to 10 scale) ([13]; Preemergence, Rate 250 g/ha) | Giant foxtail plant response rating [13, 26] | Plant response rating, Crabgrass [16, 23] | Crabgrass plant response rating (0 to 10 scale) ([16]; Preemergence, Rate 250 g/ha) | Crabgrass plant response rating [16, 26]
5: Plant response rating, Morningglory [6, 27] | Plant response rating, Sugarbeets [12, 23]
2: Plant response rating, Wild oats [1, 23] | Plant response rating, Soybean [3, 27] | B. signalgrass plant response rating [4, 26] | Sugarbeets plant response rating (0 to 10 scale) ([12]; Preemergence, Rate 250 g/ha) | Sugarbeets plant response rating [12, 26] | Plant response rating, Velvetleaf [18, 23] | Velvetleaf plant response rating [18, 26]
7: Plant response rating, Rape [9, 23] | Plant response rating, Rape [9, 27] | Plant response rating, Giant foxtail [13, 23] | Crabgrass plant response rating [16, 22] | Crabgrass plant response rating [16, 24] | Crabgrass plant response rating [16, 25] | Plant response rating, Crabgrass [16, 27]
0: Wild oats plant response rating [1, 21] | Wild oats plant response rating [1, 22] | Wild oats plant response rating [1, 24] | Wild oats plant response rating [1, 25] | Wild oats plant response rating (0 to 10 scale) ([1]; Preemergence, Rate 250 g/ha) | Plant response rating, Wild oats [1, 27] | Plant response rating, Barnyardgrass (0 to 10 scale, 0 is no effect, 10 is complete control) [2, 28] | Barnyardgrass plant response rating (0 to 10 scale, 0 is no effect, 10 is complete control) [2, 29] | Barnyardgrass plant response rating [2, 30] | Barnyardgrass plant response rating [2, 31] | Soybean plant response rating [3, 24] | Soybean plant response rating [3, 25] | Soybean plant response rating (0 to 10 scale) ([3]; Preemergence, Rate 250 g/ha) | Soybean plant response rating [3, 26] | B. signalgrass plant response rating [4, 21] | B. signalgrass plant response rating [4, 22] | Plant response rating, B. signalgrass [4, 23] | B. signalgrass plant response rating [4, 24] | B. signalgrass plant response rating (0 to 10 scale, 0 is no effect, 10 is complete control) ([4]; Preemergence, Rate 250 g/ha) | Plant response rating, B. signalgrass [4, 27] | Blackgrass plant response rating [5, 21] | Blackgrass plant response rating [5, 22] | Blackgrass plant response rating [5, 24] | Blackgrass plant response rating [5, 25] | Blackgrass plant response rating (0 to 10 scale) ([5]; Preemergence, Rate 250 g/ha) | Morningglory plant response rating [6, 21] | Morningglory plant response rating [6, 24] | Morningglory plant response rating [6, 25] | Morningglory plant response rating (0 to 10 scale) ([6]; Preemergence, Rate 250 g/ha) | Morningglory plant response rating [6, 26] | Redroot pigweed plant response rating [7, 21] | Plant response rating, Redroot pigweed [7, 27] | Corn plant response rating [8, 21] | Corn plant response rating [8, 22] | Plant response rating, Corn [8, 23] | Corn plant response rating [8, 24] | Corn plant response rating [8, 25] | Corn plant response rating (0 to 10 scale) ([8]; Preemergence, Rate 250 g/ha) | Corn plant response rating [8, 26] | Plant response rating, Corn [8, 27] | Rape plant response rating [9, 21] | Rape plant response rating [9, 22] | Rape plant response rating [9, 24] | Rape plant response rating [9, 25] | Rape plant response rating (0 to 10 scale) ([9]; Preemergence, Rate 250 g/ha) | Rape plant response rating [9, 26] | Nutsedge plant response rating ([10]; Rate 62 g/ha, scale 0 to 10 (0 no effect, 10 complete control)) | Nutsedge plant response rating ([10]; Rate 125 g/ha, scale 0 to 10, 0 is no effect, 10 is complete control) | Nutsedge plant response rating (0 to 10 scale) ([10]; Rate 250 g/ha) | Nutsedge plant response rating ([10]; Rate 500 g/ha, scale of 0 to 10 where 0 is no effect and 10 is complete control) | Bedstraw plant response rating [11, 21] | Bedstraw plant response rating [11, 24] | Sugarbeets plant response rating [12, 21] | Sugarbeets plant response rating [12, 22] | Sugarbeets plant response rating [12, 24] | Sugarbeets plant response rating [12, 25] | Giant foxtail plant response rating [13, 21] | Plant response rating, S. Flatsedge (0 to 10 scale, 0 is no effect, 10 is complete control) [14, 28] | S. Flatsedge plant response rating (0 to 10 scale, 0 is no effect, 10 is complete control) [14, 29] | S. Flatsedge plant response rating [14, 30] | S. Flatsedge plant response rating [14, 31] | Plant response rating, Ducksalad (0 to 10 scale, 0 is no effect, 10 is complete control) [15, 28] | Ducksalad plant response rating (0 to 10 scale, 0 is no effect, 10 is complete control) [15, 29] | Ducksalad plant response rating [15, 30] | Ducksalad plant response rating [15, 31] | Cocklebur plant response rating [17, 21] | Cocklebur plant response rating [17, 22] | Plant response rating, Cocklebur [17, 23] | Cocklebur plant response rating [17, 24] | Cocklebur plant response rating [17, 25] | Cocklebur plant response rating (0 to 10 scale) ([17]; Preemergence, Rate 250 g/ha) | Cocklebur plant response rating [17, 26] | Plant response rating, Cocklebur [17, 27] | Velvetleaf plant response rating [18, 21] | Velvetleaf plant response rating [18, 22] | Velvetleaf plant response rating [18, 24] | Velvetleaf plant response rating [18, 25] | Velvetleaf plant response rating (0 to 10 scale) ([18]; Preemergence, Rate 250 g/ha) | Wheat plant response rating [19, 21] | Wheat plant response rating [19, 22] | Plant response rating, Wheat [19, 23] | Wheat plant response rating [19, 24] | Wheat plant response rating [19, 25] | Wheat plant response rating (0 to 10 scale) ([19]; Preemergence, Rate 250 g/ha) | Wheat plant response rating [19, 26] | Plant response rating, Wheat [19, 27]
8: Bedstraw plant response rating (0 to 10 scale) ([11]; Preemergence, Rate 250 g/ha)
1: Soybean plant response rating [3, 21] | Soybean plant response rating [3, 22] | Crabgrass plant response rating [16, 21]
3: Wild oats plant response rating [1, 26] | Blackgrass plant response rating [5, 26] | Plant response rating, Blackgrass [5, 27] | Plant response rating, Redroot pigweed [7, 23] | Redroot pigweed plant response rating [7, 25]
4: Plant response rating, Soybean [3, 23] | Morningglory plant response rating [6, 22] | Plant response rating, Sugarbeets [12, 27] | Giant foxtail plant response rating [13, 25] | Plant response rating, Giant foxtail [13, 27]
6: Plant response rating, Blackgrass [5, 23]

CC(C)N(C(=O)n1oc(=O)n(C2CC=CCC2)c1=O)c1ccc(F)cc1 (stereo not shown) [Compound 793]
7: S. Flatsedge plant response rating [14, 33] | Ducksalad plant response rating [15, 33]
6: S. Flatsedge plant response rating [14, 32] | Ducksalad plant response rating [15, 32]
8: S. Flatsedge plant response rating [14, 31] | Ducksalad plant response rating [15, 31]
0: Barnyardgrass plant response rating [2, 32] | Barnyardgrass plant response rating [2, 33] | Barnyardgrass plant response rating [2, 31] | Rice plant response rating [20, 32] | Rice plant response rating [20, 33] | Rice plant response rating [20, 31]
